A short description of data set [1]: Inhibition of Iks current in isolated guinea pig myocytes during a 1s voltage clamp step from -50 to +50 mV. To be noted: Cavia porcellus. Type of data set: functional, cell-based.
The target in data set [2] is T1, IKr current (KCNH2 potassium channel) (Homo sapiens, UniProt Q12809). Description: Inhibition of Ikr current in isolated guinea pig myocytes during a 0.5 s voltage clamp step from -50 to -10 mV at 1000 nM. To be noted: target entry is the homologue from another species. Type of data set: functional, cell-based, Cavia porcellus.
Data set [3] concerns the target T1, IKr current (KCNH2 potassium channel). As to the kind of experiment: Inhibition of Ikr current in isolated guinea pig myocytes during a 0.5 s voltage clamp step from -50 to -10 mV at 100 nM. Type of data set: functional, cell-based, Cavia porcellus. To be noted: target entry is the homologue from another species.
The target in data set [4] is Voltage-gated inwardly rectifying potassium channel KCNH2 (Homo sapiens, UniProt Q12809). Description: Inhibition of Ikr current in isolated guinea pig myocytes during a 0.5 s voltage clamp step from -50 to -10 mV. It is filed as functional, cell-based, Cavia porcellus. To be noted: target entry is the homologue from another species.
Chain of Voltage-gated inwardly rectifying potassium channel KCNH2 (Q12809 whole entry): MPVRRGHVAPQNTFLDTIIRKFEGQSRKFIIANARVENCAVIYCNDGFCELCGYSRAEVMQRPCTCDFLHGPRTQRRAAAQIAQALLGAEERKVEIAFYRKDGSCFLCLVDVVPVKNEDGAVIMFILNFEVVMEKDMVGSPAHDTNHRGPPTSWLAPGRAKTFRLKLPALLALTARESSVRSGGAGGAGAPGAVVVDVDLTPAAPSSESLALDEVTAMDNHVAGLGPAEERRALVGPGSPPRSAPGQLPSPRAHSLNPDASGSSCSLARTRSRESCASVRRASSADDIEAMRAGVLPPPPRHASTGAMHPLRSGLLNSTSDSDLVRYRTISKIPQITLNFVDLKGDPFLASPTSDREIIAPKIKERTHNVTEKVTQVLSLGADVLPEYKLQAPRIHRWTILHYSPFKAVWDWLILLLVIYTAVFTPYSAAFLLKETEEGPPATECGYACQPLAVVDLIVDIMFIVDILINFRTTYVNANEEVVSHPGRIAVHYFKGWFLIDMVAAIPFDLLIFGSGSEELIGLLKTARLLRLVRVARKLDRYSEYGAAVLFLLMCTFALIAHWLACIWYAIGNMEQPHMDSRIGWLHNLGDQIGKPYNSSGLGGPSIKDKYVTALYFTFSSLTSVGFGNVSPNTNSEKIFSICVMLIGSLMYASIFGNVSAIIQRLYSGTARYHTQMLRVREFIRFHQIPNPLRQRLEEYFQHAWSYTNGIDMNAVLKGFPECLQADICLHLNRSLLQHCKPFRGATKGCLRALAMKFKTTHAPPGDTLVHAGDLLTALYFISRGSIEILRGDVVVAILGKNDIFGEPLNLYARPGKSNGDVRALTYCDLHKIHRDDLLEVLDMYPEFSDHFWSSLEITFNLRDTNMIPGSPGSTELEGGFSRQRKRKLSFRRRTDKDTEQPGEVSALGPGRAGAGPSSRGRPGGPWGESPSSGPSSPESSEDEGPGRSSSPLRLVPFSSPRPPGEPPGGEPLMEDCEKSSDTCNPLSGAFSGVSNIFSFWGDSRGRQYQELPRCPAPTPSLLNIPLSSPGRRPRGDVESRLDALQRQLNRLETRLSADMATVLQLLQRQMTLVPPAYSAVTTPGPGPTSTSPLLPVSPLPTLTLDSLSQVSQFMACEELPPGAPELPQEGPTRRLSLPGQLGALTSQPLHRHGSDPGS

T1 sequence (Q12809 whole entry): as above

Take `CN1C(=O)[C@H](NC(=O)Cc2ccc(C(F)(F)F)cc2C(F)(F)F)N=C(c2ccccc2)c2ccccc21`: in data set [1], it took 140 nM to reach half-maximal inhibition (IC50). With `CN1C(=O)[C@H](NC(=O)Cc2ccccc2)N=C(c2ccccc2)c2ccccc21`, in data set [1], the IC50 (usually the midpoint of a concentration-inhibition curve) worked out at 300 nM. In data set [2], the inhibition – broadly, how much of the control response was suppressed – at 1 µM amounted to 31%.

For `CN1C(=O)[C@H](NC(=O)CCc2ccccc2)N=C(c2ccccc2)c2ccccc21`, the midpoint of inhibition in data set [1], the IC50, lay at 200 nM. The same compound registered an inhibition at 1 µM in data set [2] of 32%. In turn, `CC(C)N1C(=O)[C@H](NC(=O)CCC2CCCCC2)N=C(c2ccccc2)c2ccccc21` showed a 50% inhibitory concentration (IC50) in data set [1] of 20 nM. Still for that read-out and setting: the figure for `CC(C)N1C(=O)[C@H](NC(=O)c2cc(Cl)cc(Cl)c2)N=C(c2ccccc2)c2ccccc21` is 6 nM. In turn, `CN1C(=O)[C@H](NC(=O)c2cc(Cl)cc(Cl)c2)N=C(c2ccccc2)c2ccccc21` returned an IC50 in data set [1] of 45 nM. Besides, the inhibition at 1 µM in data set [2] was 17%. On to `O=C(N[C@@H]1N=C(c2ccccc2)c2ccccc2N(CC(F)(F)F)C1=O)c1cc(Cl)cc(Cl)c1`, for which the IC50 in data set [1] stood at 11 nM. The compound also had an inhibition at 0.1 µM in data set [3] of 25%. The compound `O=C(Cc1ccc(Cl)cc1Cl)N[C@@H]1N=C(c2ccccc2)c2ccccc2N(CC(F)(F)F)C1=O` gave an IC50 in data set [1] of 9 nM. Regarding `CN(C)CCN1C(=O)C(NC(=O)CCc2ccc(Cl)cc2Cl)N=C(c2ccccc2)c2ccccc21` (stereo not drawn), in data set [4], the IC50 was 100 nM. As for `CN1C(=O)[C@H](NC(=O)c2ccccc2)N=C(c2ccccc2)c2ccccc21`, the midpoint of inhibition in data set [1], the IC50, lay at 600 nM. In data set [2], this compound came in with an inhibition at 1 µM of 23%. Compound `CC(C)N1C(=O)[C@@H](NC(=O)c2cc(Cl)cc(Cl)c2)N=C(c2ccccc2)c2ccccc21` gave an inhibition at 1 µM in data set [2] of 6%. In data set [1], `CN1C(=O)[C@H](NC(=O)/C=C/c2ccc(Cl)cc2Cl)N=C(c2ccccc2)c2ccccc21` registered an IC50 of 6 nM. Same read-out and setting: to `CN1C(=O)[C@H](NC(=O)C(N)Cc2ccccc2)N=C(c2ccccc2)c2ccccc21` (stereo partly drawn) belongs 2800 nM. Still for that read-out and setting: the figure for `CC(=O)Nc1ccc(CCC(=O)N[C@@H]2N=C(c3ccccc3)c3ccccc3N(C)C2=O)cc1` is more than 10000 nM. With `O=C(Cc1cc(Cl)cc(Cl)c1)N[C@@H]1N=C(c2ccccc2)c2ccccc2N(CC(F)(F)F)C1=O`, the results for the IC50 in data set [4] and in data set [1] were 4000 nM and 30 nM, respectively. For `CN1C(=O)[C@H](NC(=O)CCC2CCCCC2)N=C(c2ccccc2)c2ccccc21`, in that order: 1000 nM and 10 nM. `O=C(Cc1ccc(C(F)(F)F)cc1C(F)(F)F)N[C@H]1N=C(c2ccccc2)c2ccccc2N(CC(F)(F)F)C1=O` displayed an inhibition at 1 µM in data set [2] of 35%. `CC(C)N1C(=O)[C@H](NC(=O)Cc2cc(Cl)cc(Cl)c2)N=C(c2ccccc2)c2ccccc21`: in data set [1], the half-maximal inhibitory concentration (IC50) was determined as 10 nM.

In data set [2], `CN1C(=O)[C@H](NC(=O)CCc2ccc(Cl)cc2Cl)N=C(c2ccccc2)c2ccccc21` returned an inhibition at 1 µM of 31%.

On to `Cc1cccc(NC(=O)N[C@@H]2N=C(c3ccccc3)c3ccccc3N(C)C2=O)c1` [L-365260], for which the IC50 in data set [1] worked out at 214 nM. Compound `O=C(Cc1ccc(C(F)(F)F)cc1C(F)(F)F)N[C@@H]1N=C(c2ccccc2)c2ccccc2N(CC(F)(F)F)C1=O` [L-768673] yielded a 50% inhibitory concentration (IC50) in data set [1] of 6 nM.

Values taken from ChEMBL document CHEMBL1130298, “Class III antiarrhythmic activity in vivo by selective blockade of the slowly activating cardiac delayed rectifier potassium current IKs by (R)-2-(2,4-trifluoromethyl)-N-[2-oxo-5-phenyl-1-(2,2,2-trifluoroethyl)- 2, 3-dihydro-1H-benzo[e][1,4]diazepin-3-yl]acetamide” (J Med Chem, 1997).
